Laboratory results reported in patent publication US7893081B2, “Tyrosine kinase inhibitors” (Merck & Co., Inc., priority 2007, dated 2011).
pIC50: −log10 of the molar value. Where a name gives a salt, the structure may show the parent alone.

Key:
[1] = Solubility in water of the salt forms of Compound 1; format: physicochemical; details: for Native pH: pH of the aqueous solubility sample
[2] = Hygroscopicity (25° C.); format: physicochemical; details: up to 80% RH
[3] = molecular target: human c-Met (Homo sapiens, UniProt P08581); assay: biochemical
Chain of human c-Met (P08581 956-1390 limits assumed): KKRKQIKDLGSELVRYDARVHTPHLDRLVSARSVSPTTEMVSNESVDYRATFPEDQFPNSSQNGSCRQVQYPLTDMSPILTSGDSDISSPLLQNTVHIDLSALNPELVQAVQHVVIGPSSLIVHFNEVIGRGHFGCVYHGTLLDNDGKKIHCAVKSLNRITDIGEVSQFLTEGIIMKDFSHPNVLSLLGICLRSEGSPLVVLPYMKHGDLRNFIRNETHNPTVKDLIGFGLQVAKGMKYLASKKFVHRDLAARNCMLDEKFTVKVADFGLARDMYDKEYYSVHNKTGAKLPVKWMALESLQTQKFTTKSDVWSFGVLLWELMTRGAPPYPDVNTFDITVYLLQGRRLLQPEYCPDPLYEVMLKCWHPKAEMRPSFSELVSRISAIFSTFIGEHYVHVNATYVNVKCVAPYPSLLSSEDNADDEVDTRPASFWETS
Experimental: The procedure for determining the potency of a compound to inhibit c-Met kinase comprises the following steps: • 1. Prepare 3-fold serial diluted compound solutions in 100% dimethyl sulfoxide (DMSO) at 20× of the desired final concentrations in a 96 well plate. • 2. […] In a black assay plate, add 2.5 μl of compound solution (or DMSO) and 37.5 μl of master reaction mix per well. Initiate the kinase reaction by adding 10 μl of 0.25 mM MgATP per well. Allow the reactions to proceed for 80 min at room temperature. The final conditions for the reaction are 0.2 nM c-Met, 0.5 μM substrate, 50 μM MgATP, 5 mM MgCl2, 100 mM NaCl, 2 mM DTT, 0.1 mg/ml BSA, 50 mM Tris (pH 7.4) and 5% DMSO. • 4. […] Read HTRF signals on a Victor reader (PerkinElmer) in HTRF mode after 60 min. • 6.

[4] = Chemical and physical stability at 40° C./75% relative humidity; format: physicochemical; details: 6 Months at 40° C./75% relative humidity (RH)
[5] = listed as Crystalline Sodium salt, sodium salt dihydrate
[6] = listed as Crystalline potassium salt, potassium salt monohydrate

## CN(C[C@@H]1COCCO1)S(=O)(=O)Nc1ccc2ccc3ncc(-c4cnn(C)c4)cc3c(=O)c2c1 [Compound 1, N-[(2R)-1,4-dioxan-2-ylmethyl]-N-methyl-N′-[3-(1-methyl-1H-pyrazol-4-yl)-5-oxo-5H-benzo[4,5]cyclohepta[1,2-b]pyridin-7-yl]sulfamide]
[1]; listed as Free Acid
  Solubility in water: 0.003 mg/mL
[2]; listed as Free Acid
  Hygroscopicity (25° C.): 0.4% up to
[3]
  pIC50: ≤ 4.30

## CN(C[C@@H]1COCCO1)S(=O)(=O)Nc1ccc2ccc3ncc(-c4cnn(C)c4)cc3c(=O)c2c1 [Compound 1 sodium salt dihydrate, N-[(2R)-1,4-dioxan-2-ylmethyl]-N-methyl-N′-[3-(1-methyl-1H-pyrazol-4-yl)-5-oxo-5H-benzo[4,5]cyclohepta[1,2-b]pyridin-7-yl]sulfamide sodium salt dihydrate]
[1]; [5]
  Native pH: pH = 10.5
  Solubility in water: >400 mg/mL
[2]; [5]
  Hygroscopicity (25° C.): 0.14% up
[4]
  chemical and physical stability: chemically and physically stable

## CN(C[C@@H]1COCCO1)S(=O)(=O)Nc1ccc2ccc3ncc(-c4cnn(C)c4)cc3c(=O)c2c1 [Compound 1 potassium salt monohydrate, N-[(2R)-1,4-dioxan-2-ylmethyl]-N-methyl-N′-[3-(1-methyl-1H-pyrazol-4-yl)-5-oxo-5H-benzo[4,5]cyclohepta[1,2-b]pyridin-7-yl]sulfamide potassium salt monohydrate]
[1]; [6]
  Native pH: pH = 10.7
  Solubility in water: >170 mg/mL
[2]; [6]
  Hygroscopicity (25° C.): 0.81% up
